Consider seven molecules from patent US4563527A, “Amidine compounds” (Torii & Co., Ltd., priority 1984, dated 1986).

Data set [1] concerns the target T1, Trypsin (Bos taurus, UniProt P00760).
T1 sequence (P00760 24-246): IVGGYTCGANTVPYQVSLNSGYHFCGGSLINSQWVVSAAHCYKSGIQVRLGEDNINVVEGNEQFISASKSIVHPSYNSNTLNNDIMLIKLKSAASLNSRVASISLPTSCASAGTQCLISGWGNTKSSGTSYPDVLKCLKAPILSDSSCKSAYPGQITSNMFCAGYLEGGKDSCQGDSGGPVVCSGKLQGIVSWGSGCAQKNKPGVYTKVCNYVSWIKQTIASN
Kind of data set: Anti-trypsin activity (hydrolysis of TAME). The following applies: for IC50: molar concentration inhibiting 50% of TAME hydrolysis, read-out: ID50 trypsin. It counts as biochemical. The protocol: (§1) The anti-trypsin, anti-plasmin, anti-kallikrein and anti-thrombin activities were determined according to the method of Muramatsu et al. [M. Muramatus, T. Onishi, S. Makino, Y. Hayashi and S. Fujii, J. of Biochem., 58, 214 (1965)]. The data summarized in Table 1 are expressed in terms of molar concentration (ID50) of the test compound which inhibits 50% of the activity of each enzyme to hydrolyze TAME (tosylalginine methyl ester). The compound No. corresponds to the compound number shown in Examples.

Data set [2] concerns the target Plasmin (Homo sapiens, UniProt P00747). Briefly: Anti-plasmin activity (hydrolysis of TAME). It counts as biochemical. The conditions noted are these: for IC50: molar concentration inhibiting 50% of TAME hydrolysis, read-out: ID50 plasmin. The protocol:
The anti-trypsin, anti-plasmin, anti-kallikrein and anti-thrombin activities were determined according to the method of Muramatsu et al. [M. Muramatus, T. Onishi, S. Makino, Y. Hayashi and S. Fujii, J. of Biochem., 58, 214 (1965)]. […] The compound No. corresponds to the compound number shown in Examples.

Data set [3] concerns Kallikrein. Kind of data set: Anti-kallikrein activity (hydrolysis of TAME). Format: biochemical. The following applies: for IC50: molar concentration inhibiting 50% of TAME hydrolysis, read-out: ID50 kallikrein. The protocol: as §1
Data set [4] addresses Thrombin (Homo sapiens, UniProt P00734). Kind of data set: biochemical. The following applies: for inhibition at 10 µM: figure in parentheses, at 1×10^-5 M, TAME, read-out: percentage inhibition of thrombin; for IC50: molar concentration inhibiting 50% of TAME hydrolysis, read-out: ID50 thrombin.
Data set [5] has as its target T2, C1r (Homo sapiens, UniProt P00736).
T2 sequence (P00736 464-705 limits assumed): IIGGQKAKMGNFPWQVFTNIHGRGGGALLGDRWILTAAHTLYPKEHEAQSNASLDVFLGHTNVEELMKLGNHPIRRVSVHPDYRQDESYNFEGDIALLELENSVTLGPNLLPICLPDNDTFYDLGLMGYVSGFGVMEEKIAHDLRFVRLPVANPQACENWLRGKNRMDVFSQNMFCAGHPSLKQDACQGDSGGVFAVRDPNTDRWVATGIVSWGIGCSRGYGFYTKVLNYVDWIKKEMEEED
T2 sequence (P00736 18-463 partner limits assumed): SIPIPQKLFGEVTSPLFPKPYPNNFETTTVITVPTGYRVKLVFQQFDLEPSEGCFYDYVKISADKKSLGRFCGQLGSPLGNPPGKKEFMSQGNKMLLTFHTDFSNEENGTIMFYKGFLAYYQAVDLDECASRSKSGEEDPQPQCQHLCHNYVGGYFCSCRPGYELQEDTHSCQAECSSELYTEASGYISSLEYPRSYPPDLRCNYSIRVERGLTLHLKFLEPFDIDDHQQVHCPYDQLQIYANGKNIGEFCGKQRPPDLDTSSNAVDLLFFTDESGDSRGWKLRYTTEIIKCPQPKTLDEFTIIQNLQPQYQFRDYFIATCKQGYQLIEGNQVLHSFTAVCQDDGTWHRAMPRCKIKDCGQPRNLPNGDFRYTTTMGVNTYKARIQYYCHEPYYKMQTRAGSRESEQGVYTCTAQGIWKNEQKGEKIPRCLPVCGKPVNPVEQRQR
Briefly: biochemical. The conditions noted are these: molar concentration inhibiting 50% of AAME hydrolysis; read-out: ID50 C1r (Anti-C1 activity).

The target of data set [6] is T3, C1s (Homo sapiens, UniProt P09871).
T3 sequence (P09871 438-688 limits assumed): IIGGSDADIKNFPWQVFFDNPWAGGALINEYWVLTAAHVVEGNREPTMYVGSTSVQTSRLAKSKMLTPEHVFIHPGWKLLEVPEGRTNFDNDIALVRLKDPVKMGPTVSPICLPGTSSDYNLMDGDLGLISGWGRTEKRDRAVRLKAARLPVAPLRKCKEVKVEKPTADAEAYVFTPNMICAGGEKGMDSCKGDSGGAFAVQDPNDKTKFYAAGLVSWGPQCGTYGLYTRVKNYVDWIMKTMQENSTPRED
T3 sequence (P09871 16-437 partner limits assumed): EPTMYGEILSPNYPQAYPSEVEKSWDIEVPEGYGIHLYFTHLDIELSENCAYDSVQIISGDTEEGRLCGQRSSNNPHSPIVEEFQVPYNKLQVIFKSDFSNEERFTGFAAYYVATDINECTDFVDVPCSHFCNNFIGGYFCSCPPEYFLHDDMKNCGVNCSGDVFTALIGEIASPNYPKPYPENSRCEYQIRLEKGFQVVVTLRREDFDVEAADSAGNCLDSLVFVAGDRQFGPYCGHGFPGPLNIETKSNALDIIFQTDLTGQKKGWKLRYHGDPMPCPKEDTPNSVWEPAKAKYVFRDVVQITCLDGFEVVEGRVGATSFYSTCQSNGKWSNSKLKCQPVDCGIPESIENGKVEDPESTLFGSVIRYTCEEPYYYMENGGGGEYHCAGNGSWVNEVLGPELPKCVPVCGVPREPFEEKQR
Briefly: Anti-C1s activity (hydrolysis of ATEE). The conditions noted are these: molar concentration inhibiting 50% of ATEE hydrolysis; read-out: ID50 C1s (Anti-C1 activity). It counts as biochemical. How it is done: The anti-C1 esterase (C1r, C1s) activity was determined according to the method of Okamura et al. [K. Okamura, M. Muramatsu and B. Fujii, Biochem. Biophys. Acta, 295, 252-257 (1973)]. The inhibition of complement mediated hemolysis was determined according to the method of Baker et al. [B. R. Baker and E. H. Erickson, J. Med. Chem. 12, 408-414 (1969)]. The figures in Table 2 have the following meanings:
C1s: Molar concentration of the test compound which inhibits 50% of the ability of C1s to hydrolyse ATEE (acetyltyrosin ethyl ester) (ID50).

Data set [7] deals with complement. Kind of data set: Inhibition of complement mediated hemolysis. It counts as cell-based. How it is done:
The complement mediated hemolysis is widely used as a means to determine the titration of complement. The principle of this method is based on the fact that hemolysis is caused by the activation of complement, when the latter is added to a complex (immune complex) of erythrocytes and the antibody thereof. The degree of hemolysis varies in proportion to the amount of complement added. Therefore, when a known amount of complement admixed with a C1 esterase inhibitor is used, the hemolysis must be suppressed in proportion to the inhibitory activity.
The anti-C1 esterase (C1r, C1s) activity was determined according to the method of Okamura et al. [K. Okamura, M. Muramatsu and B. Fujii, Biochem. Biophys. […] The figures in Table 2 have the following meanings: […]

Data set [8] relates to Forssman shock. Kind of data set: Forssman shock. It counts as in vivo, guinea pig. The conditions noted are these: test compound 3 mg/kg before intravenous hemolysin; individual male guinea pigs; control died at 278, 318, 296 sec. From the text: Quite different from other animals, guinea pig has on the surface of its organs a specific antigen called Forssman antigen which specifically reacts with the antibody of sheep erythrocyte. Forssman shock is based on the above principle and is a shock caused by the administration of antibody of sheep erythrocyte to a guinea pig. The Forssman shock was investigated in detail by many researches and it was definitely shown that this shock is a model case where the complement plays the principal part and that the shock is associated with a classical pathway in which the complement system is activated progressively starting from C1. Since the participation of complement in autoimmune diseases has been established, the Forssman shock can be said to be useful means for testing a drug for autoimmune diseases. A drug effective for the treatment of Forssman shock is useful as a drug of autoimmune diseases. [Anti-trypsin, anti-plasmin, anti-kallikrein and anti-thrombin activities]
The experiment was performed according to the method of I. G. Offerness et al. [Biochem. Pharmacol., 27 (14), 1873-1878 (1978)]. Male Hartlay guinea pig of about 300 g in body weight was used. Each guinea pig of the control group was administered intravenously with hemolysin (minimum dose to cause the shock) (commercial hemolysin, 5,000 U as assayed by the method of Ogata) and the time elapsed until death was observed. […]

Data set [9] in a line: Median lethal dose (LD50). The following applies: in vivo, mouse.

Sequence of Plasmin (P00747 581-810 limits assumed, species assumed): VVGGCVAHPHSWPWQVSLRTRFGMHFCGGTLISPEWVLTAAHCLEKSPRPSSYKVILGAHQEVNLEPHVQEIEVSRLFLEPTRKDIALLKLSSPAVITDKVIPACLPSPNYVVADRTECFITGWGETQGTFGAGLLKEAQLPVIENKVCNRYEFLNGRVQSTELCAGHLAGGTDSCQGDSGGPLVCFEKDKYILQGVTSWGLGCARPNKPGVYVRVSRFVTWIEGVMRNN
Sequence of Plasmin (P00747 97-580 partner limits assumed, species assumed): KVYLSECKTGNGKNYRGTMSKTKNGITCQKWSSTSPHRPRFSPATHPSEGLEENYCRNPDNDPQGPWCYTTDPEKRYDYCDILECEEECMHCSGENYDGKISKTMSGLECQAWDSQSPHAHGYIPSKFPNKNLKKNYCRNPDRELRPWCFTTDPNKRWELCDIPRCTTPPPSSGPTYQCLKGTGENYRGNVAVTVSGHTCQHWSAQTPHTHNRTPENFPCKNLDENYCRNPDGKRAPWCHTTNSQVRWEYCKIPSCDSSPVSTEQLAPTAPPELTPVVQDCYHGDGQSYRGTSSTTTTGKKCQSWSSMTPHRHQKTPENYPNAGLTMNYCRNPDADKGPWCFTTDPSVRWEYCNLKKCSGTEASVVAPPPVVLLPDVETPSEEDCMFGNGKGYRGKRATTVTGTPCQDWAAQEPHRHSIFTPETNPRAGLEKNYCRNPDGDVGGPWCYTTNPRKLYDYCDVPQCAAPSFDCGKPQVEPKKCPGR

The term inhibition denotes the change of the read-out against control, counted positive when it falls. The LD50 is the dose at which mortality reaches 50%. High values mean a less toxic substance, low ones a more toxic substance. As for `N=C(N)NCc1ccc(C(=O)Oc2ccc3cc(C(=N)N)ccc3c2)o1` [Compound No. 1, 6-amidino-2-naphthyl 5-guanidinomethyl-furan-2-carboxylate], the inhibition at 10 µM in [1] (figure in parentheses, at 1×10^-5 M, TAME, read-out: percentage inhibition of trypsin) came to 35%; in data set [2] (figure in parentheses, at 1×10^-5 M, TAME, read-out: percentage inhibition of plasmin), 15%; in data set [4] it was 22%. The IC50 in data set [3] was found to be 5 µM; in data set [5], 2 µM; in [6], 3 µM. Besides, the figures for the “Inhibition of complement mediated hemolysis (%)” value (shortened to “Inhibition … (%)”) in data set [7] (1 × 10^-5), in data set [7] (1 × 10^-6) and in [7] (1 × 10^-7) were 100%, 99% and 75%, respectively. Besides, the “time elapsed until death (survival) in Forssman shock” value in data set [8] is given as “Survival”. For the same molecule, the LD50 in [9] (ip, I.P.) stood at 100 mg/kg; in [9] (po, P.O.), 2000 mg/kg.

On to `N=C(N)c1ccc2cc(OC(=O)c3ccc(CNC(=O)C(N)COCc4ccccc4)o3)ccc2c1` (stereo not drawn) [compound 36], for which the IC50 in data set [1] came out at 0.2 µM; in data set [2] it was 0.6 µM; in [3], 0.6 µM; in [4] it was 0.3 µM; in data set [5] it was 0.5 µM; in data set [6], 4 µM. In addition, the “Inhibition … (%)” value in data set [7] (1 × 10^-5) worked out at 100%; in [7] (1 × 10^-6) it was 100%; in data set [7] (1 × 10^-7), 68%.

Take `N=C(N)c1ccc2cc(OC(=O)c3ccc(CNC(=O)CCOCc4ccccc4)o3)ccc2c1` [compound 18]: the IC50 came to 0.9 µM in [1]; 0.5 µM in data set [2]; 0.5 µM in data set [3]; 0.5 µM in data set [4]; 0.3 µM in data set [5]; 3 µM in [6]. For the same molecule, the “Inhibition … (%)” value turned out to be 100% in data set [7] (1 × 10^-5), 100% in [7] (1 × 10^-6) and 97% in data set [7] (1 × 10^-7).

As for `N=C(N)c1ccc2cc(OC(=O)c3ccc(CN4CCN(Cc5ccccc5)CC4)o3)ccc2c1` [compound 26], the IC50 in data set [1] is 0.3 µM; in [2], 0.6 µM; in [3] it was 3 µM; in data set [4] it was 2 µM; in data set [5], 0.5 µM; in data set [6], 4 µM. In addition, the “Inhibition … (%)” value was found to be 100% in data set [7] (1 × 10^-5), 98% in [7] (1 × 10^-6) and 93% in data set [7] (1 × 10^-7).

Turning to `N=C(N)NCc1ccc(C(=O)Oc2ccc3cc(C(=N)N)ccc3c2)s1` [compound 28], the IC50 came to 4 µM in [1]; 9 µM in data set [2]; 4 µM in [3]; 2 µM in data set [5]; 3 µM in [6]. For the same molecule, in data set [4], the inhibition at 10 µM came to 46%. Also, the “Inhibition … (%)” value in [7] (1 × 10^-5) came to 100%; in [7] (1 × 10^-6), 82%; in data set [7] (1 × 10^-7), 35%.

In the case of `CCN=C(NCC)NCc1ccc(C(=O)Oc2ccc3cc(C(=N)N)ccc3c2)o1` [compound 8], the IC50 in data set [1] worked out at 2 µM; in data set [2], 0.8 µM; in [3] it was 0.4 µM; in data set [4] it was 1 µM; in data set [5] it was 0.8 µM; in data set [6], 2 µM. Besides, the “Inhibition … (%)” value in [7] (1 × 10^-5) is on record as 100%; in data set [7] (1 × 10^-6) it was 100%; in data set [7] (1 × 10^-7) it was 98%.

Consider `N=C(N)NCCc1ccc(C(=O)Oc2ccc3cc(C(=N)N)ccc3c2)o1` [compound 9], for which the IC50 in data set [1] was determined as 0.9 µM; in data set [2], 6 µM; in data set [4], 1 µM; in data set [5] it was 0.4 µM; in data set [6] it was 3 µM. In addition, in [3] (figure in parentheses, at 1×10^-5 M, TAME), the “percentage inhibition of kallikrein” value is given as 47%. Further, the figures for the “Inhibition … (%)” value in data set [7] (1 × 10^-5), in [7] (1 × 10^-6) and in [7] (1 × 10^-7) were 100%, 100% and 94%, respectively.
